Common to all, as to test: relative viability (nuclei count vs DMSO), 5 days (fraction); higher = more cells survive
Compound in the assay “IDH-C35 + Vorinostat”: Cc1ccccc1C(C(=O)NC1CCCCC1)N(C(=O)Cn1ccnc1C)c1cccc(F)c1 [IDH-C35] + O=C(CCCCCCC(=O)Nc1ccccc1)NO [Vorinostat] (partner 1 µM)
In a few lines: (§1)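 Medians of duplicate plates are given as relative viability. That measure is the nuclei count in treated wells divided by the count in vehicle wells. Counts were taken on 4× images of lung cancer cell lines in 1536-well plates, 5 days after pin-tool dosing the day after seeding with one drug alone or a fixed anchor-drug dose plus five library-drug doses (not always all listed) in √10 steps.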

Compound in the assay “IDH-C35 + Foretinib”: Cc1ccccc1C(C(=O)NC1CCCCC1)N(C(=O)Cn1ccnc1C)c1cccc(F)c1 [IDH-C35] + COc1cc2c(Oc3ccc(NC(=O)C4(C(=O)Nc5ccc(F)cc5)CC4)cc3F)ccnc2cc1OCCCN1CCOCC1 [Foretinib] (partner 0.25 µM)
In a few lines:
as §1

Compound in assay [1]: CC1=C(C(=NN1)C)CC2=C(C3=C(S2)N(C(=O)N(C3=O)C)CC(C)C)C(=O)N4C[C@@H](CO4)O + CS(=O)(=O)N1CCN(Cc2cc3nc(-c4cccc5[nH]ncc45)nc(N4CCOCC4)c3s2)CC1 [Pictilisib] (partner 1 µM)
In outline: as §1

Compound in the assay “IDH-C35 + Lapatinib”: Cc1ccccc1C(C(=O)NC1CCCCC1)N(C(=O)Cn1ccnc1C)c1cccc(F)c1 [IDH-C35] + CS(=O)(=O)CCNCc1ccc(-c2ccc3ncnc(Nc4ccc(OCc5cccc(F)c5)c(Cl)c4)c3c2)o1 [Lapatinib] (partner 2 µM)
In outline: as §1

For one cell line, relative viability results are on record in the supplement of paper PMC10307832.

Turning to UMC-11, the relative viability with IDH-C35 + Vorinostat (first compound 0.08 µM) turned out to be 0.373; with IDH-C35 + Vorinostat (first compound 0.253 µM), 0.468; with IDH-C35 + Vorinostat (first compound 0.8 µM) it was 0.435; in the assay with IDH-C35 + Vorinostat (first compound 2.53 µM), 0.434; with IDH-C35 + Vorinostat (first compound 8 µM), 0.46; in the assay with IDH-C35 + Foretinib (first compound 0.08 µM) it was 0.889. Also, the relative viability was found to be 1.07 in the assay with IDH-C35 + Foretinib (first compound 0.253 µM); 0.997 with IDH-C35 + Foretinib (first compound 0.8 µM); 1.06 with IDH-C35 + Foretinib (first compound 2.53 µM); 1.11 with IDH-C35 + Foretinib (first compound 8 µM); 0.917 in assay [1] (first compound 0.0025 µM); 0.673 in assay [1] (first compound 0.007906 µM). Moreover, the relative viability is 0.785 in assay [1] (first compound 0.025 µM); 0.921 in assay [1] (first compound 0.07906 µM); 0.907 in assay [1] (first compound 0.25 µM); 1.01 in the assay with IDH-C35 + Lapatinib (first compound 0.08 µM); 0.976 with IDH-C35 + Lapatinib (first compound 0.253 µM); 0.98 with IDH-C35 + Lapatinib (first compound 0.8 µM). In addition, the relative viability with IDH-C35 + Lapatinib (first compound 2.53 µM) turned out to be 0.96; with IDH-C35 + Lapatinib (first compound 8 µM) it was 1.09.
